For one assay, the target named is T1, TRKA (Homo sapiens, UniProt P04629).
T1 construct: purchased life technologies PV3144
Put plainly: Z′-LYTE kinase activity assay, TRKA. Particulars: ATP 400 uM. In kind it is biochemical. An excerpt:
(§1) Kinase activity assay: Z′-LYTE™ technology (detection by fluorescence, enzyme-conjugated format, based on the difference in sensitivity of phosphorylated and non-phosphorylated peptides to proteolytic cleavage) was applied, and using the principle of fluorescence resonance energy transfer (FRET), a Z′-LYTE™ FRET peptide substrate (Z′-LYTE™ Tyrosine 1 Peptide Substrate, Invitrogen, PV3190), and a secondary reaction were used to detect the inhibitory activity of the compounds on TRKs (TRK1, TRK2, TRK3) (life technologies, PV3144, PV3616, PV3617).
(§2) Enzymatic reaction: In a 384-well plate, 5 μL of an enzyme-substrate system (50 mM HEPES pH 7.5, 0.01% BRIJ-35, 10 mM MgCl2, 1 mM EGTA, 2 μM Tyr 01 Peptide Substrate) was added and 5 nL of compound (concentration gradient) was transferred thereto by using the echo520 ultramicro liquid pipetting system. […] After shaking and mixing, centrifuging was performed. A reaction was carried out at 30° C. in the dark for 1.5 hours.
(§3) The data were analyzed as follows:
(§4) Phosphorylation ratio=1−{(emission ratio×F100%−C100%)/[C0%−C100%+emission ratio×(F100%−F0%)]}×100;
(§5) Inhibition rate=100×(1−compound phosphorylation ratio/negative control phosphorylation ratio).
(§6) IC50 values were calculated by using GraphPad Prism 5.0 software.

In a further assay the target is T2, BaF3-ETV6-NTRK3 (Homo sapiens, UniProt Q16288).
T2 construct: fused on or other part: P41212 (Transcription factor ETV6)
T2 sequence (Q16288 whole entry, the tested form may be a part): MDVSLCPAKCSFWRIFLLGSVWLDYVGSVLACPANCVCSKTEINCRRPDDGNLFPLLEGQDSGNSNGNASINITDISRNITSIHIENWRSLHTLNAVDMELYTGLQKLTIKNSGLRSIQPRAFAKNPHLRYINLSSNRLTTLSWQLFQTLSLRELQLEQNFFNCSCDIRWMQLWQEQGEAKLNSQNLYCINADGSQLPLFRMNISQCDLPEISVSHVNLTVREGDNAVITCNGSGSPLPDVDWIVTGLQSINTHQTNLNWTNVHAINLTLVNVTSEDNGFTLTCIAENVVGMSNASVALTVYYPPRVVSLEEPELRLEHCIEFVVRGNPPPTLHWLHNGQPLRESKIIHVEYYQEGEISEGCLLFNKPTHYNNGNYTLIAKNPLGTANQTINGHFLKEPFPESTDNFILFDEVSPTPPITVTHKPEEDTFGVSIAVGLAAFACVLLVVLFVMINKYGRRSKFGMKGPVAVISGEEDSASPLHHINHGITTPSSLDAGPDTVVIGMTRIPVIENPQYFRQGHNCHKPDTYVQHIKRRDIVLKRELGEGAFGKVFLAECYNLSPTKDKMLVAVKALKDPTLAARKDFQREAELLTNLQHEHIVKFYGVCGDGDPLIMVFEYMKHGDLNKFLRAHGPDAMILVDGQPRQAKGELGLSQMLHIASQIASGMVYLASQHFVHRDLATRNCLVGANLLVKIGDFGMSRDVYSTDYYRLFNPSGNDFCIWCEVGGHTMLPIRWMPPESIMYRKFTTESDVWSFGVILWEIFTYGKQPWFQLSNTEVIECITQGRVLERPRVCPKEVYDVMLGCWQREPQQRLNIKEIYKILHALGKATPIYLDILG
In words: Cell proliferation inhibition (CCK-8), BaF3-ETV6-NTRK3 stable strain. In kind it is cell-based, mouse. As to conditions: BaF3-ETV6-NTRK3, 72 hours. An outline of the steps:
(§7)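 Ba/F3 cells stably electroporated with ETV6-NTRK3, CD74-NTRK1 or ETV6-NTRK2, selected with G418 and grown without IL3, then cloned by limiting dilution.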

Another assay deals with T3, TRKC (Homo sapiens, UniProt Q16288).
T3 construct: purchased life technologies PV3617
T3 sequence (Q16288 32-839): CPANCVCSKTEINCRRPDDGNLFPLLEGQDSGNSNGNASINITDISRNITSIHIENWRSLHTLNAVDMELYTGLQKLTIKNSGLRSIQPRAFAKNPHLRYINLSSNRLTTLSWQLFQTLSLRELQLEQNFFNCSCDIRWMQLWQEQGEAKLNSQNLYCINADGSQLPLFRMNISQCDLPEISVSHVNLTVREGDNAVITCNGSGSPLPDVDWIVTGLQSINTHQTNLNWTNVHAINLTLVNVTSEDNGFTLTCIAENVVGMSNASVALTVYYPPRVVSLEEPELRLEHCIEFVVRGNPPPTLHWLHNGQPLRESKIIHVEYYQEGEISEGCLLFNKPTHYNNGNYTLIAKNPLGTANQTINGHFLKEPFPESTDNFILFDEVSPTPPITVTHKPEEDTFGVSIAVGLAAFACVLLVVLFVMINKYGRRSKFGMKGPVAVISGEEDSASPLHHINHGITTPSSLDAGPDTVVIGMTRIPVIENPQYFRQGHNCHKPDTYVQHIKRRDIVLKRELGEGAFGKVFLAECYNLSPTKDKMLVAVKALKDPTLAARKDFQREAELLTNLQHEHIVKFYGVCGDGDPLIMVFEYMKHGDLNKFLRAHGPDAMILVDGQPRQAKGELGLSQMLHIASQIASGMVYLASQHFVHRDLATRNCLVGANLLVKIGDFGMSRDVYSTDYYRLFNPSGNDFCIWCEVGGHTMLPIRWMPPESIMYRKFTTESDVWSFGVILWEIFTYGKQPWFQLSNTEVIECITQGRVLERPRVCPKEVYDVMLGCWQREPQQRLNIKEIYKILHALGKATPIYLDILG
In words: Z′-LYTE kinase activity assay, TRKC. In kind it is biochemical. As to conditions: ATP 50 uM.
Description: as §1, §2, §3, §6

The target in the next assay is T4, BaF3-CD74-NTRK1 (Homo sapiens, UniProt P04629).
T4 construct: fused on or other part: P04233 (HLA class II histocompatibility antigen gamma chain)
T4 sequence (P04629 510-796 limits assumed): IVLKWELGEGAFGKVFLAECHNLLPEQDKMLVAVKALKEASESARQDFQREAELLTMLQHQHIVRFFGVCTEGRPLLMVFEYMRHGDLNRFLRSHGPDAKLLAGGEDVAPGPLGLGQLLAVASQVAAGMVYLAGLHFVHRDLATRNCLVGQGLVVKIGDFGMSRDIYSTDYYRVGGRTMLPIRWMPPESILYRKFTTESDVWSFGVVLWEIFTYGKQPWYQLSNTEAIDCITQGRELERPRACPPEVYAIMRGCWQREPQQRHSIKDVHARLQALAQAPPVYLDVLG
Put plainly: Cell proliferation inhibition (CCK-8), BaF3-CD74-NTRK1 stable strain. In kind it is cell-based, mouse. Particulars: BaF3-CD74-NTRK1, 72 hours. An outline of the steps: as §7

In the next assay the target is T5, BaF3-ETV6-NTRK2 (Homo sapiens, UniProt Q16620).
T5 construct: fused on or other part: P41212 (Transcription factor ETV6)
T5 sequence (Q16620 538-822 limits assumed): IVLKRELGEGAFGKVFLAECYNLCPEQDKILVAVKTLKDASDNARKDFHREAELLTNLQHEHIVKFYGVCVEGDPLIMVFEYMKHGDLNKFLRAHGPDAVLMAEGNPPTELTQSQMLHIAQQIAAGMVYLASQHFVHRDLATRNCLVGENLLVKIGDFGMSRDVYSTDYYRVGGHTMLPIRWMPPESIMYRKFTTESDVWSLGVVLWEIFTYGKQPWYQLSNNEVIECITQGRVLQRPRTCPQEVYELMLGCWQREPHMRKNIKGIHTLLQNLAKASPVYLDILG
Put plainly: Cell proliferation inhibition (CCK-8), BaF3-ETV6-NTRK2 stable strain. In kind it is cell-based, mouse. As to conditions: BaF3-ETV6-NTRK2, 72 hours. An outline of the steps: as §7

For another assay, the target named is T6, TRKB (Homo sapiens, UniProt Q16620).
T6 construct: purchased life technologies PV3616
T6 sequence (Q16620 32-822): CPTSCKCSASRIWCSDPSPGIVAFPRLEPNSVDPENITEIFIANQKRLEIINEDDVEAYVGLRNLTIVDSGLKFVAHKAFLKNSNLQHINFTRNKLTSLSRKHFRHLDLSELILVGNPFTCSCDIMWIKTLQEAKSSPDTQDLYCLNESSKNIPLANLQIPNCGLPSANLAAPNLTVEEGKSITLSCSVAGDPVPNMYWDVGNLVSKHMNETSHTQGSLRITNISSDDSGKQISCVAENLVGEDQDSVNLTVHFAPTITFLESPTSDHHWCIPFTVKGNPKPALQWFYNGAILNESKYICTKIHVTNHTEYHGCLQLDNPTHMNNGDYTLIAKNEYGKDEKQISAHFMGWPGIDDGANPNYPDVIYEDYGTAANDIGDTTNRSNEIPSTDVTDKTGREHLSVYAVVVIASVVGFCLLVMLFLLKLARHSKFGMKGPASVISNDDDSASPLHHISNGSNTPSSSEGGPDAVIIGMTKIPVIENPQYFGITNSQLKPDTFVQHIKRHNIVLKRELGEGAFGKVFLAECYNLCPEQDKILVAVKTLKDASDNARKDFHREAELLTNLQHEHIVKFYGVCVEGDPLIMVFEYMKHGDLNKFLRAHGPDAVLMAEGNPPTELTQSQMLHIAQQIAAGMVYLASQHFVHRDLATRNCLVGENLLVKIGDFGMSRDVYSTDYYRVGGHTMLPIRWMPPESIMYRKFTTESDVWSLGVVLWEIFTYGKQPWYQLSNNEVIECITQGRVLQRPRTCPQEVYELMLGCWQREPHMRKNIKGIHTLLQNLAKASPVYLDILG
Put plainly: Z′-LYTE kinase activity assay, TRKB. In kind it is biochemical. As to conditions: ATP 25 uM.
Description: as §1, §2, §3, §4, §5, §6

T1 sequence (P04629 440-796 limits assumed): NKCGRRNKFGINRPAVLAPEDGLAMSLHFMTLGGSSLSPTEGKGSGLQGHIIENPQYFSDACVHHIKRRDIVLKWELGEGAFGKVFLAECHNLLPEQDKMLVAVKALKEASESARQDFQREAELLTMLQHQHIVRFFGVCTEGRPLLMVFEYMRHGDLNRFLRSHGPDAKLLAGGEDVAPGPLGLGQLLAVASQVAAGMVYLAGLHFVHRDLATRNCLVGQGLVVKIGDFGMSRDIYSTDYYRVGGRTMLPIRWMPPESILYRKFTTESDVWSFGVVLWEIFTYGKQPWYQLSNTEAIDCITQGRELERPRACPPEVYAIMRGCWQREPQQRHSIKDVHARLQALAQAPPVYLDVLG

Consider `Fc1cccc(Cc2ccc3[nH]nc(C#Cc4ccccn4)c3c2)c1` [DYX-025, 5-(3-fluorobenzyl)-3-(pyridin-2-ylethynyl)-1H-indazole], for which the IC50 was 26 nM at TRKA; 917 nM on BaF3-ETV6-NTRK3; 12 nM at TRKC; 2330 nM against BaF3-CD74-NTRK1; 2560 nM against BaF3-ETV6-NTRK2; 82 nM on TRKB.
On to `Fc1ccc(Cc2ccc3[nH]nc(C#Cc4ccccn4)c3c2)cc1` [DYX-027, 5-(4-fluorobenzyl)-3-(pyridin-2-ylethynyl)-1H-indazole], for which the IC50 on TRKA is above 1000 nM; against BaF3-ETV6-NTRK3 it was above 10000 nM; at TRKC it was above 1000 nM; against BaF3-CD74-NTRK1 it was above 10000 nM; against BaF3-ETV6-NTRK2, above 10000 nM; at TRKB, above 1000 nM.
On to `Fc1ccccc1Cc1ccc2[nH]nc(/C=C/c3ccccn3)c2c1` [DYX-032, (E)-5-(2-fluorobenzyl)-3-(2-(pyridin-2-yl)vinyl)-1H-indazole], for which the IC50 at TRKA is 14.5 nM; on BaF3-ETV6-NTRK3, 718 nM; against TRKC, 12 nM; at BaF3-CD74-NTRK1 it was 1920 nM; against BaF3-ETV6-NTRK2, 2340 nM; on TRKB, 56.1 nM.
Regarding `Fc1cccc(Cc2ccc3[nH]nc(/C=C/c4ccccn4)c3c2)c1` [DYX-038, (E)-5-(3-fluorobenzyl)-3-(2-(pyridin-2-yl)vinyl)-1H-indazole], the IC50 against TRKA was determined as 9.3 nM; on BaF3-ETV6-NTRK3, 133 nM; against TRKC, 1.9 nM; against BaF3-CD74-NTRK1, 239 nM; against BaF3-ETV6-NTRK2, 335 nM; against TRKB, 32.4 nM.
With `Fc1ccc(F)c(Cc2ccc3[nH]nc(C#Cc4ccccn4)c3c2)c1` [DYX-041, 5-(2,5-difluorobenzyl)-3-(pyridin-2-ylethynyl)-1H-indazole], the 50% inhibitory concentration (IC50) against TRKA was determined as 44 nM; on BaF3-ETV6-NTRK3, 796 nM; on TRKC, 8 nM; against BaF3-CD74-NTRK1 it was 724 nM; against BaF3-ETV6-NTRK2, 1990 nM; on TRKB, 40 nM.
Turning to `Fc1ccc(Cc2ccc3[nH]nc(/C=C/c4ccccn4)c3c2)cc1` [DYX-042, (E)-5-(4-fluorobenzyl)-3-(2-(pyridin-2-yl)vinyl)-1H-indazole], the IC50 is 251 nM at TRKA; 8380 nM against BaF3-ETV6-NTRK3; 114 nM against TRKC; 8710 nM at BaF3-CD74-NTRK1; above 10000 nM against BaF3-ETV6-NTRK2; 281 nM against TRKB.
Turning to `Fc1ccc(Cc2ccc3[nH]nc(C#Cc4ccccn4)c3c2)cc1F` [DYX-044, 5-(3,4-difluorobenzyl)-3-(pyridin-2-ylethynyl)-1H-indazole], the IC50 against TRKA is 501 nM; on BaF3-ETV6-NTRK3, above 10000 nM; against TRKC, 652 nM; against BaF3-CD74-NTRK1, above 10000 nM; against BaF3-ETV6-NTRK2, above 10000 nM; against TRKB it was above 1000 nM.
For `C(=C\c1n[nH]c2ccc(Cc3ccccc3)cc12)/c1ccccn1` [DYX-048, (E)-5-benzyl-3-(2-(pyridin-2-yl)vinyl)-1H-indazole], the IC50 was determined as 33.2 nM against TRKA; 959 nM at BaF3-ETV6-NTRK3; 9.7 nM against TRKC; 803 nM against BaF3-CD74-NTRK1; 168 nM against BaF3-ETV6-NTRK2; 15.3 nM against TRKB.
As for `Fc1ccc(Cc2ccc3[nH]nc(C#Cc4ccccn4)c3c2)c(F)c1` [DYX-051, 5-(2,4-difluorobenzyl)-3-(pyridin-2-ylethynyl)-1H-indazole], the IC50 is above 1000 nM against TRKA; above 10000 nM on BaF3-ETV6-NTRK3; above 1000 nM against TRKC; above 10000 nM against BaF3-CD74-NTRK1; above 10000 nM against BaF3-ETV6-NTRK2; above 1000 nM against TRKB.
Regarding `Fc1ccc(F)c(Cc2ccc3[nH]nc(/C=C/c4ccccn4)c3c2)c1` [DYX-054, (E)-5-(2,5-difluorobenzyl)-3-(2-(pyridin-2-yl)vinyl)-1H-indazole], the IC50 against TRKA worked out at 7.1 nM; at BaF3-ETV6-NTRK3, 145 nM; against TRKC, 5.4 nM; on BaF3-CD74-NTRK1 it was 546 nM; against BaF3-ETV6-NTRK2, 329 nM; on TRKB, 12.2 nM.

A word on the IC50: it is the point on the concentration scale where inhibition reaches its midpoint. Low values mean inhibition by little substance, high ones a need for much substance.

(Values after patent US20220281821A1, “INDAZOLE COMPOUNDS AND THEIR PHARMACEUTICAL COMPOSITIONS” (Jinan University, priority 2019, published 2022).)
